Reference: PubChem BioAssay (NCI)
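Values below derive from 48-hour exposures of cells grown in 96-well plates, with endpoints linearly interpolated between the two concentrations bracketing the appropriate inhibition level. At the TGI there is no net growth.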

Assays:
Assay in all cases: NCI tumour cell line growth inhibition, 48 h
MDA-MB-435 = system: MDA-MB-435
NCI-H226 lung = system: NCI-H226 lung
OVCAR-8 ovarian = system: OVCAR-8 ovarian
RXF 393 renal = system: RXF 393 renal
UO-31 renal = system: UO-31 renal
OVCAR-5 ovarian = system: OVCAR-5 ovarian

C/C(=N\NC(=O)/C(C#N)=C\c1ccc(N(CCC#N)CCC#N)cc1)c1ccccc1
TGI (MDA-MB-435): > 10 µM
TGI (NCI-H226 lung): > 10 µM
TGI (OVCAR-8 ovarian): > 10 µM
TGI (RXF 393 renal): > 10 µM
TGI (UO-31 renal): > 10 µM

C=C(C)[C@@H]1CC[C@@H](C)[C@](O)([C@@H]2C[C@@H]([C@H](COC(=O)c3ccccc3)OC(=O)c3ccccc3)OC2=O)C1
TGI (MDA-MB-435): > 100 µM
TGI (NCI-H226 lung): > 100 µM
TGI (OVCAR-5 ovarian): > 100 µM
TGI (OVCAR-8 ovarian): > 100 µM
TGI (RXF 393 renal): > 100 µM
TGI (UO-31 renal): > 100 µM

C[C@]12CC(c3ccccc3O1)C(C#N)C(=O)N2 (stereo partly specified)
TGI (MDA-MB-435): > 100 µM
TGI (NCI-H226 lung): > 100 µM
TGI (OVCAR-5 ovarian): > 100 µM
TGI (OVCAR-8 ovarian): > 100 µM
TGI (RXF 393 renal): > 100 µM

Cc1cnc2[nH]c(-c3ccc(F)cc3)cc(=O)c2c1
TGI (MDA-MB-435): 12.6 µM
TGI (NCI-H226 lung): > 84.5 µM
TGI (OVCAR-5 ovarian): > 100 µM
TGI (OVCAR-8 ovarian): > 100 µM
TGI (RXF 393 renal): > 100 µM
TGI (UO-31 renal): > 100 µM

Cc1ccc(S(=O)(=O)[N-]C2C(=O)c3ccccc3C(=O)C2[n+]2cccc(C(N)=O)c2)cc1 (stereo unspecified)
TGI (MDA-MB-435): > 100 µM
TGI (NCI-H226 lung): > 100 µM
TGI (OVCAR-5 ovarian): > 100 µM
TGI (OVCAR-8 ovarian): > 100 µM
TGI (RXF 393 renal): > 100 µM
TGI (UO-31 renal): > 100 µM

Cc1cc(S(=O)(=O)Nc2nc(N)nc(N3CCOCC3)n2)c(SCC(=O)O)cc1Cl
TGI (NCI-H226 lung): > 10 µM
TGI (OVCAR-5 ovarian): > 10 µM
TGI (OVCAR-8 ovarian): > 10 µM
TGI (RXF 393 renal): > 10 µM
TGI (UO-31 renal): > 10 µM

CC(=O)NCC1(c2ccccc2)CCN(CC2COc3ccccc3O2)CC1 (stereo unspecified)
TGI (MDA-MB-435): > 100 µM
TGI (NCI-H226 lung): > 100 µM
TGI (OVCAR-5 ovarian): > 100 µM
TGI (OVCAR-8 ovarian): > 100 µM
TGI (RXF 393 renal): > 100 µM
TGI (UO-31 renal): > 100 µM

CO/C(=N\N=C\c1ccc(OC)cc1OC)c1ccncc1
TGI (NCI-H226 lung): > 10 µM
TGI (OVCAR-5 ovarian): > 10 µM
TGI (OVCAR-8 ovarian): > 10 µM
TGI (RXF 393 renal): > 10 µM
TGI (UO-31 renal): > 10 µM

CC1(C)CCCCCCCCCC(C)(CCCO)C1=O (stereo unspecified)
TGI (MDA-MB-435): 34 µM
TGI (NCI-H226 lung): 31 µM
TGI (OVCAR-5 ovarian): 28.8 µM
TGI (OVCAR-8 ovarian): 35.8 µM
TGI (RXF 393 renal): 34.4 µM
TGI (UO-31 renal): 24.4 µM

CC(=O)O[C@H]1C(=O)[C@@]2(C)[C@H]([C@H](OC(=O)c3ccc([N+](=O)[O-])cc3)[C@]3(O)C[C@H](OC(=O)[C@H](O)[C@@H](NC(=O)c4ccccc4)c4ccccc4)C(C)=C1C3(C)C)[C@]1(OC(C)=O)CO[C@@H]1C[C@@H]2O
TGI (MDA-MB-435): > 25 µM
TGI (NCI-H226 lung): > 25 µM
TGI (OVCAR-5 ovarian): > 25 µM
TGI (OVCAR-8 ovarian): > 25 µM
TGI (RXF 393 renal): > 25 µM
TGI (UO-31 renal): > 25 µM

O=C1/C(=C/c2ccc(Cl)cc2)NC(=S)N1CN1CCOCC1
TGI (MDA-MB-435): > 100 µM
TGI (NCI-H226 lung): > 100 µM
TGI (OVCAR-5 ovarian): > 100 µM
TGI (OVCAR-8 ovarian): > 100 µM
TGI (UO-31 renal): > 100 µM

O=c1oc2cc(O)ccc2c(O)c1C(c1ccccn1)c1c(O)c2ccc(O)cc2oc1=O
TGI (MDA-MB-435): > 100 µM
TGI (NCI-H226 lung): > 100 µM
TGI (OVCAR-5 ovarian): > 100 µM
TGI (OVCAR-8 ovarian): > 100 µM
TGI (RXF 393 renal): > 100 µM
TGI (UO-31 renal): > 100 µM

COc1ccc2nc3cc([N+](=O)[O-])ccc3c(NNc3ccc(Cl)cc3)c2c1
TGI (MDA-MB-435): > 100 µM
TGI (NCI-H226 lung): 26 µM
TGI (OVCAR-5 ovarian): > 100 µM
TGI (OVCAR-8 ovarian): 65.1 µM
TGI (RXF 393 renal): > 83.4 µM
TGI (UO-31 renal): > 100 µM

CCOC(=O)c1cc(C2CCN(CC(C)CC)C2=S)c(C(=O)/C=C(/C)N)[nH]1 (stereo unspecified)
TGI (MDA-MB-435): > 50 µM
TGI (NCI-H226 lung): > 50 µM
TGI (OVCAR-5 ovarian): > 50 µM
TGI (OVCAR-8 ovarian): > 50 µM
TGI (RXF 393 renal): > 50 µM
TGI (UO-31 renal): > 50 µM

CS(=O)(=O)c1[nH]nc2[nH]c(=O)[nH]c(=O)c12
TGI (MDA-MB-435): > 10 µM
TGI (NCI-H226 lung): > 10 µM
TGI (OVCAR-5 ovarian): > 10 µM
TGI (OVCAR-8 ovarian): > 10 µM
TGI (RXF 393 renal): > 10 µM

NC1=CC(C(=O)c2ccncc2)c2nc3ccccc3nc21 (stereo unspecified)
TGI (MDA-MB-435): > 100 µM
TGI (NCI-H226 lung): > 100 µM
TGI (OVCAR-5 ovarian): > 100 µM
TGI (OVCAR-8 ovarian): > 100 µM
TGI (RXF 393 renal): > 100 µM
TGI (UO-31 renal): > 100 µM

COC1C=C(NCC2(CO)CCC2)NC(N)=N1 (stereo unspecified)
TGI (MDA-MB-435): > 100 µM
TGI (NCI-H226 lung): > 100 µM
TGI (OVCAR-5 ovarian): > 100 µM
TGI (OVCAR-8 ovarian): > 100 µM
TGI (RXF 393 renal): > 100 µM
TGI (UO-31 renal): > 100 µM

COc1cccc(-c2cccc(SC)n2)n1
TGI (MDA-MB-435): 86.8 µM
TGI (NCI-H226 lung): 31.6 µM
TGI (OVCAR-5 ovarian): > 100 µM
TGI (OVCAR-8 ovarian): > 100 µM
TGI (RXF 393 renal): 63 µM
TGI (UO-31 renal): > 100 µM

c1ccc2[nH]c3[nH]c4[nH]c5ccccc5[nH]c4[nH]c3[nH]c2c1
TGI (MDA-MB-435): > 100 µM
TGI (NCI-H226 lung): > 100 µM
TGI (OVCAR-5 ovarian): > 100 µM
TGI (OVCAR-8 ovarian): > 100 µM
TGI (RXF 393 renal): > 100 µM
TGI (UO-31 renal): > 100 µM

O=C(CSCC(=O)N/N=C/c1cccc(OCc2ccccc2)c1)N/N=C/c1cccc(OCc2ccccc2)c1
TGI (MDA-MB-435): > 100 µM
TGI (NCI-H226 lung): > 100 µM
TGI (OVCAR-5 ovarian): > 100 µM
TGI (OVCAR-8 ovarian): > 100 µM
TGI (RXF 393 renal): > 100 µM
TGI (UO-31 renal): > 100 µM

O=C1Nc2ccccc2[C@]12C[C@H]2c1ccccn1
TGI (MDA-MB-435): > 100 µM
TGI (NCI-H226 lung): > 100 µM
TGI (OVCAR-5 ovarian): > 100 µM
TGI (RXF 393 renal): > 100 µM
TGI (UO-31 renal): > 100 µM

COc1ccc(-n2c3c(c4cc(O)ccc42)C(=O)c2ccccc2C3=O)cc1
TGI (MDA-MB-435): > 100 µM
TGI (OVCAR-5 ovarian): > 100 µM
TGI (OVCAR-8 ovarian): 13.6 µM
TGI (RXF 393 renal): 18 µM
TGI (UO-31 renal): > 100 µM

CCOc1ccc(N/C(=C(/C(Cl)=C(/Cl)NCCO)[N+](=O)[O-])n2nnc3ccccc32)cc1
TGI (MDA-MB-435): 35.1 µM
TGI (NCI-H226 lung): > 100 µM
TGI (OVCAR-5 ovarian): > 100 µM
TGI (OVCAR-8 ovarian): 36.7 µM
TGI (RXF 393 renal): 31.7 µM
TGI (UO-31 renal): 58 µM

CC(=O)n1nc(-c2nc3ccccc3nc2Cl)cc1Cl
TGI (MDA-MB-435): 19 µM
TGI (NCI-H226 lung): 30.8 µM
TGI (OVCAR-5 ovarian): > 92.3 µM
TGI (OVCAR-8 ovarian): 67.1 µM
TGI (RXF 393 renal): > 100 µM
TGI (UO-31 renal): 4.79 µM

NC(C(F)(F)F)(C(F)(F)F)P(=O)(c1ccccc1)c1ccccc1
TGI (MDA-MB-435): > 100 µM
TGI (NCI-H226 lung): > 100 µM
TGI (OVCAR-5 ovarian): > 100 µM
TGI (OVCAR-8 ovarian): > 100 µM
TGI (RXF 393 renal): > 100 µM
TGI (UO-31 renal): > 100 µM

CC(=O)OCC1OC(n2c3c(c(-c4ccc(Cl)cc4)c(C#N)c2=S)C(=O)CC(C)(C)C3)C(OC(C)=O)C(OC(C)=O)C1OC(C)=O (stereo unspecified)
TGI (MDA-MB-435): > 69.6 µM
TGI (NCI-H226 lung): > 81 µM
TGI (OVCAR-5 ovarian): > 100 µM
TGI (OVCAR-8 ovarian): 51.8 µM
TGI (RXF 393 renal): 68.8 µM
TGI (UO-31 renal): > 78.5 µM

Nc1nc(Cl)cc(NCC2(CO)CCC2)n1
TGI (MDA-MB-435): > 100 µM
TGI (NCI-H226 lung): > 100 µM
TGI (OVCAR-5 ovarian): > 100 µM
TGI (OVCAR-8 ovarian): > 100 µM
TGI (RXF 393 renal): > 100 µM
TGI (UO-31 renal): > 100 µM

N#CC1=C(C#N)/C(=C(\C#N)C(C#N)C#N)N=C1N
TGI (MDA-MB-435): 36.7 µM
TGI (NCI-H226 lung): 97.3 µM
TGI (OVCAR-5 ovarian): > 93.9 µM
TGI (OVCAR-8 ovarian): > 100 µM
TGI (RXF 393 renal): > 100 µM
TGI (UO-31 renal): > 100 µM

CCOC(=O)c1nnsc1NC(=O)Nc1ccc(Cl)cc1
TGI (MDA-MB-435): > 100 µM
TGI (NCI-H226 lung): > 100 µM
TGI (OVCAR-5 ovarian): > 100 µM
TGI (OVCAR-8 ovarian): 41.2 µM
TGI (RXF 393 renal): > 100 µM
TGI (UO-31 renal): > 100 µM
